Experimental data taken from patent US20230026402A1, “MICROBIOTA BASED THERAPIES TO PROMOTE MENTAL HEALTH” (Cornell University, priority 2019, published 2023).
“Also recorded” adds a separate entry of the source. Structures can show the parent of a compound that is named as a salt.

Experiments:
[1] = system: BV-2 immortalized mouse microglia; test: Metabolite time course in BV-2 microglia (Ki67 proliferation, CSF1R and F4/80 surface staining); assay type: cell-based; conditions: BV-2 cells, 32 ug/mL of each compound; for proliferation (percent Ki67+ cells): 5 days (120 h); for CSF1R cell surface staining intensity (MFI) / F4/80 cell surface staining intensity (MFI): 5 days
Experimental: FIG. 26. Representation of the outline of metabolite time course experiment utilizing BV-2 immortalized mouse microglia. BV-2 cells are plated with either media alone, or with a cocktail of the 4 metabolites identified in slide 1 at a final concentration of 32 ug/mL of each compound at the indicated time points. Cells are then harvested and stained using conventional methods for either cell surface markers or the proliferation marker Ki67.
FIG. 27. Metabolite treatment increases proliferative capacity and alters the cell surface profile of BV-2 cells. Results of metabolite time course in BV-2 cells. […] Each bar is the average of 4 separate wells+/−SEM. P-vales calculated using two-way ANOVA.
FIG. 29. […] In order to test the ability of the AhR ligand indoxyl sulfate in BV-2 microglia, cells were treated for 5 days with either a cocktail of metabolites or with indoxyl sulfate (32 ug/mL of all compounds tested). […] Each bar is the average of 4 separate wells+/−SEM. P-vales calculated using two-way ANOVA.
Purified cultures, or immortalized equivalents were used. The cells were treated with a cocktail of the 4 metabolites to evaluate microglial response to metabolite treatment (FIG. 26). […] There is a relatively linear effect with increasing proportions of proliferation or F4/80, CSF1R high cells with increasing exposure to the metabolite cocktail.
We next asked if individual metabolites were responsible for the biological activity of the metabolite cocktail or whether multiple metabolites were required.

BV-2 cells [2] = test: BV-2 phagocytosis assay with apoptotic N2A bait cells (CypHer5); assay type: cell-based, mouse; conditions: metabolite cocktail plus CH223191 5 uM
Source text: FIG. 32. Outline of phagocytosis assay in BV-2 cells. Briefly, apoptotic N2A cells (“bait”) are generated by UV irradiation and loaded with the pH sensitive dye CypHer5 before co-culture with Hoechst stained BV-2 cells. After washing, BV-2 cells are the collected and analyzed by flow cytometry.
FIG. 33. […] Each bar is the average of 4 separate wells +/−SEM. P-vales calculated using two-way ANOVA.
Finally, we asked whether treatment with metabolites altered the ability of BV-2 microglia to engulf apoptotic N2A cells as outlined above. In this assay the phagocytes (in this case BV-2 cells) are treated with metabolites or vehicle for 120 h and then loaded with Hoechest dye. N2A cells are killed with UV radiation (confirmed by staining with viability dyes and Annexin V to distinguish apoptotic from necrotic cells) and then loaded with the pH sensitive dye CypHer5 which only fluoresces in the phagolysosome. They are then fed to BV-2 cells for a predetermined length of time (5:1 ratio of N2A to BV-2, 1 h of eating) before being harvested and analyzed by flow cytometry (FIG. 32).

BV-2 cells [3] = test: AhR blockade of metabolite-induced changes in BV-2 microglia; assay type: cell-based, mouse; conditions: metabolite cocktail 32 ug/mL each plus CH223191 5 uM, 5 days
Experimental: FIG. 28. […] Results of AhR blockade on metabolite-induced proliferation and cell surface profile changes in BV-2 microglia. BV-2 cells were treated with vehicle (DMSO), metabolite cocktail (32 ug/mL of each metabolite), or metabolite cocktail with the AhR inhibitor CH223191 (5 uM final concentration in DMSO) for 5 days before performing the same analysis as in slide 5 (CSF1R and F4/80 or Ki67 staining). While the increase in F4/80 and CSF1R intensity is dependent on intact AhR signaling (top row), AhR signaling is dispensable for metabolite-induced proliferation (bottom row). Each bar is the average of 4 separate wells+/−SEM. P-vales calculated using two-way ANOVA.

| SMILES | proliferation (percent Ki67+ cells) [1] | proliferation (percent Ki67+ cells) ([1]; listed as IS) | CSF1R cell surface staining intensity (MFI) [1] | F4/80 cell surface staining intensity (MFI) [1] | CSF1R cell surface staining intensity (MFI) ([1]; listed as IS) | F4/80 cell surface staining intensity (MFI) ([1]; listed as IS) | metabolite-induced phagocytosis under AhR inhibition (BV-2 cells [2]) | metabolite-induced phagocytosis under AhR inhibition (BV-2 cells [2]; listed as Met+CH) | metabolite-induced increase in CSF1R intensity under AhR inhibition (BV-2 cells [3]) | metabolite-induced increase in F4/80 intensity under AhR inhibition (BV-2 cells [3]) | metabolite-induced proliferation (Ki67) under AhR inhibition (BV-2 cells [3]) |
| --- | --- | --- | --- | --- | --- | --- | --- | --- | --- | --- | --- |
| O=S(=O)(O)Oc1c[nH]c2ccccc12 [indoxyl sulfate] | nor does it increase the proliferative capacity | unable to significantly change either cell surface levels of F4/80 or CSF1R or to increase proliferation | does not increase CSF1R or F4/80 protein staining intensity | does not increase CSF1R or F4/80 protein staining intensity | unable to significantly change | unable to significantly change | – | – | – | – | – |
| Cc1ccccc1N=Nc1ccc(NC(=O)c2ccnn2C)c(C)c1 [CH223191] | – | – | – | – | – | – | significance is abolished | NOT dependent on AhR signaling | required for the upregulation of CSF1R and F4/80; also recorded: reduces metabolite induced changes in surface markers | required for the upregulation of CSF1R and F4/80; also recorded: reduces metabolite induced changes in surface markers | dispensable for enhancement of proliferation; also recorded: does not change proliferation |
